Experimental data reported in patent US12485106B2, “Methods of treating fibrotic liver diseases or conditions with indeglitazar” (PLEIOGENIX INC., priority 2023, dated 2025).

Assays:
PPARδ = target: T1, PPARδ (Homo sapiens, UniProt Q03181); settings: cited from earlier work
T1 sequence (Q03181 1-441): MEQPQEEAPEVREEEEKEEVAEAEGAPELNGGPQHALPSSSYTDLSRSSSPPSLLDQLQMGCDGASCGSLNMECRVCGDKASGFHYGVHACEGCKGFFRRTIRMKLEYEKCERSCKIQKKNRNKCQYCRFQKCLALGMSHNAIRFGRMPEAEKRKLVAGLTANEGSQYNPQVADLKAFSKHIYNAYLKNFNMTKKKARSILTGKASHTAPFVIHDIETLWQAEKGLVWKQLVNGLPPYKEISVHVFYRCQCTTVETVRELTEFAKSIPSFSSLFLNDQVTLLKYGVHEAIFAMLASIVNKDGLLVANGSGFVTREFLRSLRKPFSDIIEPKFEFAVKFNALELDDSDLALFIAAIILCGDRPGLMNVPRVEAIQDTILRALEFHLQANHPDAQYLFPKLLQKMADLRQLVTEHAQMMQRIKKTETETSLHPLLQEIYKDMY

[1] = test system: carbon tetrachloride (CCl4)-treated mice model of human NAFLD, NASH, and hepatic fibrosis; assay: CCl4-treated mouse model of human NAFLD, NASH and hepatic fibrosis; type: in vivo; settings: vs CCl4 vehicle
Source text: Mouse model generation and treatment. C57Bl/6 mice (6-week-old, males) were purchased from Jackson Laboratories and were housed under specific pathogen-free conditions. All experiment protocols were approved by the Institutional Animal Care and Use Committee (IACUC) of Pleiogenix, or its research partners. The mice were acclimated for a minimum of seven days prior to initiation of treatment (Sanyal A J et al., N Engl J Med, (2010), 362:1675-85). The mice were fed Purina normal chow and drinking water ad libitum during the acclimation period. After acclimation, the mice were randomized based on body weight (bw). A total of 22 mice were used; and treated as described in Table 1. Briefly, on day 0, mice were treated according to Table 4.
Liver fibrosis was induced as previously described (Nesto R W et al., Circulation, (2003), 108:2941-8). Carbon tetrachloride (CCl4), formulated in mineral oil, was administered twice per week i.p. at 1 μl/gram body weight throughout the study duration (8 wks). Indeglitazar was administered daily by oral gavage at 30 mg/kg body weight throughout the study duration (8 wks). Mice were observed daily for clinical signs. Any observations noted outside of the scheduled observations were documented as unscheduled. Assessments included, but were not be limited to, assessment of activity, posture, respiration, emesis, seizure, hydration status, injection site irritation, and overall body condition. The absence or presence of findings were recorded.
Individual body weights were recorded on all animals prior to the initiation of the study and weekly body weights were recorded. Blood was collected and plasma was measured for alanine aminotransferase (ALT) and aspartate aminotransferase (AST) and on weeks 0 (baseline), 4, and wk 8 (terminal). At the end of the study, liver necropsy was performed including weighing and processing for histology, and frozen at −80° C. for the following downstream analyses: Liver histopathology: hematoxyline and eosin (H&E) staining (Kumar P et al., PLOS ONE, (2014), 9:e110405); Sirius Red staining for fibrosis (Nesto R W et al., Circulation, (2003), 108:2941-8). Biochemical markers of human hepatic fibrosis and anti-fibrotic adipokine, adiponectin: hepatic hydroxyproline (Nesto R W et al., Circulation, (2003), 108:2941-8); plasma TGFβ1 (Fischer A H et al., CSH Protoc, (2008), 2008:pdb.prot4986); adiponectin (Guo J C et al., Zhonghua Shi Yan He Lin Chuang Bing Du Xue Za Zhi, (2008), 22:354-7).
[…]

[2] = Parallel Artificial Membrane Permeability-Blood Brain Barrier Assay (PMBBB-096); type: in vitro ADME; settings: compared to promazine HCl (high permeability control)
Procedure: Indeglitazar was evaluated using the Parallel Artificial Membrane Permeability-Blood Brain Barrier Assay (PMBBB-096; BioAssay Systems, Hayward, CA).

[3] = test system: adipocyte differentiation; settings: compared with full PPAR γ-agonists like pioglitazone; cited from earlier work
[4] = 30 mg/kg/day oral gavage, 8 wks, male mice

For `COc1ccc(S(=O)(=O)n2cc(CCC(=O)O)c3cc(OC)ccc32)cc1` [Indeglitazar, 3-[5-methoxy-1-(4-methoxybenzenesulfonyl)-1H-indol-3-yl]-propanoic acid], the “agonism towards PPARδ” value (PPARδ) is listed as “partial agonism”, the “effect on liver hydroxyproline” value [1, 4] is listed as “significantly reduces” and the “effect on plasma TGF-β1” value [1, 4] is listed as “significantly reduces”. For the same compound, the “effect on plasma adiponectin” value [1, 4] was “significantly increases”, the “magnitude of increase of plasma adiponectin” value ([1]; 30 mg/kg/day) was “approximately 125%” and the “magnitude of reduction of hydroxyproline” value ([1]; 30 mg/kg/day) was “approximately 25%”. The “magnitude of reduction of plasma TGFβ1” value ([1]; 30 mg/kg/day) was “approximately 30%”, the “ability to cross the blood-brain barrier” value [2] was about 15% and the promoting adipocyte differentiation [3] was “less potent”.
